Where two headings read alike, the source gives them in different places.
Assays:
[1] = biological target: T1, Full-length (FL)-PRMT5-MEP50 enzyme complex (Homo sapiens, UniProt O14744); assay: PRMT5-MEP50 Enzyme Methylation Assay (Version A); type: biochemical
T1 construct: Full-length (FL)-PRMT5-MEP50 enzyme complex (recombinant proteins from baculovirus-transfected Sf21 cells: FL-PRMT5; MW=73837 kDa and FL-MEP50; MW=38614); made in house; host or cells: baculovirus-transfected Sf21 cells
Procedure, shortened: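 Compound was pre-incubated with enzyme for 60 min, then reacted 150 min at 37° C. at final 1.0 nM PRMT5-MEP50, 15 μM SAM and 75 nM biotinylated H4R3(Me1) peptide, in 50 mM Bicine pH 8.0 with 1% DMSO. SAMDI mass-spectrometric readout of Me1→Me2 conversion. EC50 from 4- or 7-parameter regression.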

[2] = test system: symmetric dimethylation of arginine (SDMA) of PRMT5 substrates in MCF-7 cells; assay: PRMT5 Cell Target Engagement (TE) Assay; type: cell-based; conditions: Homo sapiens, MCF7, 72 h, 3 days treatment, SDMA high content imaging
Procedure, shortened: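 MCF-7 cells treated 3 days at 37 °C with a ten-point 1:3 titration from 10000 nM. Fixed cells immunostained with anti-SDMA and Alexa488 secondary; nuclear fluorescence quantified by high-content imaging versus DMSO wells, with IC50 from a 4-parameter fit.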

[3] = single EC50 = 4 parameter single site sigmoidal fit, EC50 1 = first value of 7 parameter biphasic fit, read-out: Enzyme Methylation Assay Version A (EC50 or EC50 1)
[4] = second value of 7 parameter biphasic fit, read-out: Enzyme Methylation Assay Version A (EC50 2)

T1 sequence (O14744 whole entry): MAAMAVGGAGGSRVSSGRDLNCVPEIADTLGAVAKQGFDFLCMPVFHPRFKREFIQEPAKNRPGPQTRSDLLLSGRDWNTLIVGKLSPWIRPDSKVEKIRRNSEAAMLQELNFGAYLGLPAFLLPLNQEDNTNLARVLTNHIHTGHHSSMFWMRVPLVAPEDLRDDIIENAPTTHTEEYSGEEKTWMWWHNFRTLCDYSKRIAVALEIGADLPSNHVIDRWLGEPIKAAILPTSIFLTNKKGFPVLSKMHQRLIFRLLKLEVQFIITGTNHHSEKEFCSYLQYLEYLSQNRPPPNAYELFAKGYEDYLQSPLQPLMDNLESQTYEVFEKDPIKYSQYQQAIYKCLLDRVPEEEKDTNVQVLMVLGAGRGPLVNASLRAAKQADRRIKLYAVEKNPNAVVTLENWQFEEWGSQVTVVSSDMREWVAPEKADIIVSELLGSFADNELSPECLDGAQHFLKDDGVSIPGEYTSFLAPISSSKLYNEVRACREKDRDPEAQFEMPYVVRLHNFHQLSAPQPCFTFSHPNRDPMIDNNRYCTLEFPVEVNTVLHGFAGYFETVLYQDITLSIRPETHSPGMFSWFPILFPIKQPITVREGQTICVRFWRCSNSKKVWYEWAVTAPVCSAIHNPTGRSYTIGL
T1 sequence (Q9BQA1 whole entry partner): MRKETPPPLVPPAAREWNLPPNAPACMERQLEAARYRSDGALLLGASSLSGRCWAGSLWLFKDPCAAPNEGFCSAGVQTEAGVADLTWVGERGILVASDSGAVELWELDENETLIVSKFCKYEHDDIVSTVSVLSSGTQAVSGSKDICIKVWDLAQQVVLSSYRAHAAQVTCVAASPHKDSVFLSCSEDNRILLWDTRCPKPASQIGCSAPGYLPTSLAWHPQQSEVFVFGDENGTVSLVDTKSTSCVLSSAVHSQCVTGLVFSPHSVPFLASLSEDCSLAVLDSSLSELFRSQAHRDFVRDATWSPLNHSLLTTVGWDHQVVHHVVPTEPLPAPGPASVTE

Compound	EC50 [1, 3]	EC50 [2]	EC50 [1, 4]
COc1nc2nc(C(=O)N3CC[C@]4(Cc5ccccc5CN4)[C@H](O)C3)cn2cc1Br (single isomer, unassigned) [Example 248]	0.000557 µM	0.00935 µM	0.153 µM
Cn1c(=O)c(Br)cn2cc(C(=O)N3CC[C@]4(Cc5ccccc5CN4)[C@H](O)C3)nc12 (single isomer, unassigned) [Example 249]	0.0208 µM	0.311 µM	8.51 µM
COC(C)(C)c1ccc2nc(C(=O)N3CC[C@]4(Cc5ccccc5CN4)[C@H](O)C3)cn2c1 (stereo in doubt) [Example 46, (3′-hydroxy-2,4-dihydro-1H-spiro[isoquinoline-3,4′-piperidin]-1′-yl)(6-(2-methoxypropan-2-yl)imidazo[1,2-a]pyridin-2-yl)methanone]	0.000498 µM	0.0271 µM	0.138 µM
O=C(c1cn2cc(Br)ccc2n1)N1CC[C@]2(Cc3ccccc3CN2)[C@H](O)C1 [Example 1, (6-bromoimidazo[1,2-a]pyridin-2-yl)((3R,3′R)-3′-hydroxy-1,4-dihydro-2H-spiro[isoquinoline-3,4′-piperidin]-1′-yl)methanone]	0.000501 µM	0.00292 µM	0.0753 µM
CN(C)C(=O)c1ccc2nc(C(=O)N3CC[C@]4(Cc5ccccc5CN4)[C@H](O)C3)cn2c1 [Example 2, 2-((3R,3′R)-3′-hydroxy-2,4-dihydro-1H-spiro[isoquinoline-3,4′-piperidin]-1′-ylcarbonyl)-N,N-dimethylimidazo[1,2-a]pyridine-6-carboxamide]	0.000629 µM	0.0758 µM	1.38 µM
O=C(c1cn2cc(Br)cc(CO)c2n1)N1CC[C@]2(Cc3ccccc3CN2)[C@H](O)C1 [Example 6, (6-bromo-8-(hydroxymethyl)imidazo[1,2-a]pyridin-2-yl)((3R,3’R)-3′-hydroxy-1,4-dihydro-2H-spiro[isoquinoline-3,4′-piperidin]-1′-yl)methanone]	0.00071 µM	0.00324 µM	0.22 µM
O=C(c1cn2cc(Br)cc(I)c2n1)N1CC[C@]2(Cc3ccccc3CN2)[C@H](O)C1 [Example 7]	0.000639 µM	0.000545 µM	0.0525 µM
COc1nc(Br)cn2cc(C(=O)N3CC[C@]4(Cc5ccccc5CN4)[C@H](O)C3)nc12 [Example 8]	0.00153 µM	0.00363 µM	0.403 µM
O=C(c1ccc2c(O)c(C3CC3)cnc2c1)N1CC[C@]2(Cc3ccccc3CN2)[C@H](O)C1 [Example 9, (3-cyclopropyl-4-hydroxyquinolin-7-yl)((3R,3’R)-3′-hydroxy-1,4-dihydro-1′H,2H-spiro[isoquinoline-3,4′-piperidin]-1′-yl)methanone]	0.0135 µM	0.694 µM	4.68 µM
CC(C)Oc1nc(Br)cn2cc(C(=O)N3CC[C@]4(Cc5ccccc5CN4)[C@H](O)C3)nc12 [Example 11, {6-bromo-8-[(propan-2-yl)oxy]imidazo[1,2-a]pyrazin-2-yl}((3R,3’R)-3′-hydroxy-1,4-dihydro-1′H,2H-spiro[isoquinoline-3,4′-piperidin]-1′-yl)methanone]	0.000495 µM	0.0042 µM	0.0886 µM
O=C1CCCN1CCOc1nc(Br)cn2cc(C(=O)N3CC[C@]4(Cc5ccccc5CN4)[C@H](O)C3)nc12 [Example 13, 1-(2-((6-bromo-2-((3R,3’R)-3′-hydroxy-1,4-dihydro-2H-spiro[isoquinoline-3,4′-piperidine]-1′-carbonyl)imidazo[1,2-a]pyrazin-8-yl)oxy)ethyl)pyrrolidin-2-one]	0.000406 µM	0.00816 µM	0.32 µM
O=C(c1cc2ncc(Br)cn2n1)N1CC[C@]2(Cc3ccccc3CN2)[C@H](O)C1 [Example 17, (6-bromopyrazolo[1,5-a]pyrimidin-2-yl)((3R,3’R)-3′-hydroxy-1,4-dihydro-1′H,2H-spiro[isoquinoline-3,4′-piperidin]-1′-yl)methanone]	0.00151 µM	0.0141 µM	0.794 µM
O=C(c1nc2cc(Cl)ccn2n1)N1CC[C@]2(Cc3ccccc3CN2)[C@H](O)C1 [Example 18]	0.0631 µM	1.01 µM	57.5 µM
COCCOc1nc(Br)cn2cc(C(=O)N3CC[C@]4(Cc5ccccc5CN4)[C@H](O)C3)nc12 [Example 19, (6-bromo-8-(2-methoxyethoxy)imidazo[1,2-a]pyrazin-2-yl)((3R,3’R)-3′-hydroxy-1,4-dihydro-2H-spiro[isoquinoline-3,4′-piperidin]-1′-yl)methanone]	0.000305 µM	0.0102 µM	0.105 µM
CC(C)(O)COc1nc(Br)cn2cc(C(=O)N3CC[C@]4(Cc5ccccc5CN4)[C@H](O)C3)nc12 [Example 20, (6-bromo-8-(2-hydroxy-2-methylpropoxy)imidazo[1,2-a]pyrazin-2-yl)((3R,3’R)-3′-hydroxy-1,4-dihydro-2H-spiro[isoquinoline-3,4′-piperidin]-1′-yl)methanone]	0.000438 µM	0.0165 µM	0.151 µM
CCN1CCNc2cc(C(=O)N3CC[C@]4(Cc5ccccc5CN4)[C@H](O)C3)ccc2C1=O [Example 26, 4-ethyl-8-((3R,3’R)-3′-hydroxy-1,4-dihydro-1′H,2H-spiro[isoquinoline-3,4′-piperidine]-1′-carbonyl)-1,2,3,4-tetrahydro-5H-1,4-benzodiazepin-5-one]	0.00144 µM	0.0123 µM	0.684 µM
COCc1cc(Br)cn2cc(C(=O)N3CC[C@]4(Cc5ccccc5CN4)[C@H](O)C3)nc12 [Example 28, (6-bromo-8-(methoxymethyl)imidazo[1,2-a]pyridin-2-yl)((3R,3’R)-3′-hydroxy-1,4-dihydro-2H-spiro[isoquinoline-3,4′-piperidin]-1′-yl)methanone]	0.000816 µM	0.00275 µM	

Other lines, results leading:

EC50 [1, 3]	EC50 [2]	EC50 [1, 4]	Compound
0.00847 µM	0.0267 µM		Cc1ccc2c(c1)C[C@]1(CCN(C(=O)c3cn4cc(C5CC5)cnc4n3)C[C@H]1O)NC2 (single isomer, unassigned) [Example 227]
0.00145 µM	0.0145 µM	0.918 µM	O=C(c1cn2cc(Cl)cnc2n1)N1CC[C@]2(Cc3ccccc3CN2)[C@H](O)C1 [Example 3, (6-chloroimidazo[1,2-a]pyrimidin-2-yl)((3R,3′R)-3′-hydroxy-1,4-dihydro-2H-spiro[isoquinoline-3,4′-piperidin]-1′-yl)methanone]
0.000815 µM	0.00421 µM	0.18 µM	CCOc1nc(Br)cn2cc(C(=O)N3CC[C@]4(Cc5ccccc5CN4)[C@H](O)C3)nc12 [Example 10]
0.000231 µM	0.00948 µM	0.159 µM	O=C(c1cn2cc(Br)nc(OC3COC3)c2n1)N1CC[C@]2(Cc3ccccc3CN2)[C@H](O)C1 [Example 12, (6-bromo-8-(oxetan-3-yloxy)imidazo[1,2-a]pyrazin-2-yl)((3R,3’R)-3′-hydroxy-1,4-dihydro-2H-spiro[isoquinoline-3,4′-piperidin]-1′-yl)methanone]
0.1 µM	0.547 µM	57.5 µM	O=C(c1cn2cc(Br)cc(N3CCCC3=O)c2n1)N1CC[C@]2(Cc3ccccc3CN2)[C@H](O)C1 [Example 14, 1-(6-bromo-2-((3R3’R)-3′-hydroxy-1,4-dihydro-2H-spiro[isoquinoline-3,4′-piperidine]-1′-carbonyl)imidazo[1,2-a]pyridin-8-yl)pyrrolidin-2-one]
0.00202 µM	0.0509 µM	1.59 µM	O=C(c1cn2cc(Br)ccc2n1)N1CCC2(Cc3ccccc3CN2)C(O)C1 (stereo not drawn) [Example 16, A diastereomer of (6-bromoimidazo[1,2-a]pyridin-2-yl)(3′-hydroxy-1,4-dihydro-1′H,2H-spiro[isoquinoline-3,4′-piperidin]-1′-yl)methanone]
0.000191 µM	0.00213 µM		N#CC1(COc2nc(Br)cn3cc(C(=O)N4CC[C@]5(Cc6ccccc6CN5)[C@H](O)C4)nc23)CC1 [Example 21, 1-(((6-bromo-2-((3R,3’R)-3′-hydroxy-1,4-dihydro-2H-spiro[isoquinoline-3,4′-piperidine]-l′-carbonyl)imidazo[1,2-a]pyrazin-8-yl)oxy)methyl)cyclopropane-1-carbonitrile]
0.000461 µM	0.00409 µM	0.146 µM	O=C(c1cn2cc(Br)cnc2n1)N1CC[C@]2(Cc3ccccc3CN2)[C@H](O)C1 [Example 24, (6-bromoimidazo[1,2-a]pyrimidin-2-yl)((3R,3’RR)-3′-hydroxy-1,4-dihydro-1′H,2H-spiro[isoquinoline-3,4′-piperidin]-1′-yl)methanone]
0.00712 µM	0.0302 µM	2.04 µM	O=C(c1cnc2ncc(Br)cn12)N1CC[C@]2(Cc3ccccc3CN2)[C@H](O)C1 [Example 25, (6-bromoimidazo[1,2-a]pyrimidin-3-yl)((3R,3’R)-3′-hydroxy-1,4-dihydro-1′H,2H-spiro[isoquinoline-3,4′-piperidin]-1′-yl)methanone]
0.00365 µM	0.0368 µM	3.35 µM	CC(C)N1CCNc2cc(C(=O)N3CC[C@]4(Cc5ccccc5CN4)[C@H](O)C3)ccc2C1=O [Example 27, 8-((3R,3’R)-3′-hydroxy-1,4-dihydro-1′H,2H-spiro[isoquinoline-3,4′-piperidine]-1′-carbonyl)-4-(propan-2-yl)-1,2,3,4-tetrahydro-5H-1,4-benzodiazepin-5-one]
